Source: US11752156B2, “Compositions and methods for treating hyperproliferative skin disorders” (Athenex HK Innovative Limited, priority 2018, dated 2023)
“And” between values parts separate entries of the source, which are not always exact repeats. Identical values can stand only once. Like-named read-outs stand apart in the source and are kept apart here.

Assays:
[1] = system: CCD 1106 KERTr human keratinocyte cell line; test: MTT cell proliferation assay, 72 hours, dark or blue light, keratinocytes; type: cell-based; conditions: for inhibition at 0.01 µM / inhibition at 0.02 µM / inhibition at 0.04 µM / inhibition at 0.08 µM: Homo sapiens, read-out: growth inhibition relative to untreated control
Procedure: The effects of combined treatment with KX01, a vitamin D derivative, and/or blue/UV light exposure were characterized using a cell proliferation assay. Cell proliferation was assessed by using an MTT assay. Cells were seeded in 96-well plate (3,000-5,000 cells per well) and treated with test compounds at varying concentrations (e.g. KX01: 5 to 80 nM; calcipotriol 5 to 1,280 nM) for 72 hours, either in the dark or exposed to blue light irradiation (for 2, 4, or 6 hours). To each well, 10 μl of 3-(4,5-dimethylthiazol-2-yl)-2,5-diphenyltetrazolium bromide (MTT) (RPI Corporation™) solution (5 mg/ml in PBS) was added and incubated at 37° C. for 3 hours. Next, 100 μl of 20% SDS was added to each well. After overnight incubation at 37° C., the absorbance in each well was measured at 570 nm in a microplate reader (Molecular Devices™). The cell growth curve and GI50s were calculate using GraphPad Prism™ 5 software. Tables 13 and 14 show the results of cell growth inhibition studies (expressed as a percentage relative to control cell growth) for treatment with either KX01 or calcipotriol in combination with exposure to blue light. […] The percentage of growth inhibition relative to untreated control is shown. […] The percentage of growth inhibition relative to untreated control is shown. Tables 15 to 18 show the effects of combined treatment with KX01, calcipotriol, and exposure to blue light at 0 hours, 2 hours, 4 hours, and 6 hours of light exposure (respectively). Values are expressed as the percentage of growth inhibition relative to cells grown under control conditions (0 hours blue light, [KX01]=0, [calcipotriol]=0). […] Results are shown below in Tables 27 to Table 30, which show results from 0, 2, 4, and 6 hours of blue light exposure (respectively). Values are expressed as the percentage of growth inhibition relative to cells grown under control conditions (0 hours blue light, [KX01]=0, [calcipotriol]=0).

[2] = system: squamous cell human carcinoma cell line (SCC A431); test: MTT cell proliferation assay, 72 hours, dark or blue light, squamous cell carcinoma; type: cell-based; conditions: for inhibition at 0.02 µM / inhibition at 0.04 µM / inhibition at 0.08 µM / inhibition at 0.01 µM: Homo sapiens, read-out: growth inhibition relative to untreated control
Procedure: The effects of combined treatment with KX01, a vitamin D derivative, and/or blue/UV light exposure were characterized using a cell proliferation assay. Cell proliferation was assessed by using an MTT assay. Cells were seeded in 96-well plate (3,000-5,000 cells per well) and treated with test compounds at varying concentrations (e.g. KX01: 5 to 80 nM; calcipotriol 5 to 1,280 nM) for 72 hours, either in the dark or exposed to blue light irradiation (for 2, 4, or 6 hours). To each well, 10 μl of 3-(4,5-dimethylthiazol-2-yl)-2,5-diphenyltetrazolium bromide (MTT) (RPI Corporation™) solution (5 mg/ml in PBS) was added and incubated at 37° C. for 3 hours. Next, 100 μl of 20% SDS was added to each well. After overnight incubation at 37° C., the absorbance in each well was measured at 570 nm in a microplate reader (Molecular Devices™). The cell growth curve and GI50s were calculate using GraphPad Prism™ 5 software. Similar studies were performed using a squamous cell carcinoma cell line (SCC A431). Tables 19 and 20 show the results of cell growth inhibition studies (expressed as a percentage relative to control cell growth) for treatment with either KX01 or calcipotriol in combination with exposure to blue light. […] The percentage of growth inhibition relative to untreated control is shown. Tables 21 to 24 show the effects of combined treatment with KX01, calcipotriol, and exposure to blue light at 0 hours, 2 hours, 4 hours, and 6 hours of light exposure (respectively) on human squamous cell carcinoma cells. Values are expressed as the percentage of growth inhibition relative to cells grown under control conditions (0 hours blue light, [KX01]=0, [calcipotriol]=0). The percentage of growth inhibition relative to an untreated control is shown. […] Results are shown below in Tables 31 and 32, which show results for KX01 and calcipotriol (respectively). Values are expressed as the percentage of growth inhibition relative to cells grown under control conditions (0 hours blue light, [KX01]=0, [calcipotriol]=0). […] Results are shown below in Tables 33 to Table 36, which show results from 0, 2, 4, and 6 hours of blue light exposure (respectively). Values are expressed as the percentage of growth inhibition relative to cells grown under control conditions (0 hours blue light, [KX01]=0, [calcipotriol]=0).

O=C(Cc1ccc(-c2ccc(OCCN3CCOCC3)cc2)cn1)NCc1ccccc1 [KX01, N-benzyl-2-(5-{4-[2-(morpholine-4-yl)ethoxy]phenyl}pyridine-2-yl)acetamide] was tested, and the inhibition at 0.01 µM ([1]; CCD-1106, 2 h, KX01 10 nM, blue light 2 h) was 27%, the inhibition at 0.02 µM ([1]; CCD-1106, 2 h, KX01 20 nM, blue light 2 h) was 63% and the inhibition at 0.04 µM ([1]; CCD-1106, 2 h, KX01 40 nM, blue light 2 h) was 92%. It also gave an inhibition at 0.01 µM ([1]; CCD-1106, 4 h, KX01 10 nM, blue light 4 h) of 47%, an inhibition at 0.02 µM ([1]; CCD-1106, 4 h, KX01 20 nM, blue light 4 h) of 64% and an inhibition at 0.04 µM ([1]; CCD-1106, 4 h, KX01 40 nM, blue light 4 h) of 87%. It also gave an inhibition at 0.08 µM ([1]; CCD-1106, 4 h, KX01 80 nM, blue light 4 h) of 92%, an inhibition at 0.01 µM ([1]; CCD-1106, 6 h, KX01 10 nM, blue light 6 h) of 56% and an inhibition at 0.02 µM ([1]; CCD-1106, 6 h, KX01 20 nM, blue light 6 h) of 70%. For the same compound, the inhibition at 0.04 µM ([1]; CCD-1106, 6 h, KX01 40 nM, blue light 6 h) was 88%, the inhibition at 0.08 µM ([1]; CCD-1106, 6 h, KX01 80 nM, blue light 6 h) was 87% and the “growth inhibition relative to untreated control” value ([1]; KX01 10 nM, blue light 0 h) was 4% and 9% and 6%. The “growth inhibition relative to untreated control” value ([1]; KX01 10 nM, blue light 2 h) was 32% and 34%, the “growth inhibition relative to untreated control” value ([1]; KX01 10 nM, blue light 4 h) was 50% and the “growth inhibition relative to untreated control” value ([1]; KX01 10 nM, blue light 6 h) was 62% and 57%. The “growth inhibition relative to untreated control” value ([1]; KX01 20 nM, blue light 0 h) was 49%, the “growth inhibition relative to untreated control” value ([1]; KX01 20 nM, blue light 2 h) was 74% and 68% and the “growth inhibition relative to untreated control” value ([1]; KX01 20 nM, blue light 4 h) was 69% and 68%. The “growth inhibition relative to untreated control” value ([1]; KX01 20 nM, blue light 6 h) was 67% and 73%, the “growth inhibition relative to untreated control” value ([1]; KX01 40 nM, blue light 0 h) was 90% and 45% and the “growth inhibition relative to untreated control” value ([1]; KX01 40 nM, blue light 2 h) was 98% and 91%. For the same compound, the “growth inhibition relative to untreated control” value ([1]; KX01 40 nM, blue light 4 h) was 86%, the “growth inhibition relative to untreated control” value ([1]; KX01 40 nM, blue light 6 h) was 84% and the “growth inhibition relative to untreated control” value ([1]; KX01 80 nM, blue light 0 h) was 96% and 48% and 95%. For the same compound, the “growth inhibition relative to untreated control” value ([1]; KX01 80 nM, blue light 4 h) was 93% and 90%, the “growth inhibition relative to untreated control” value ([1]; KX01 80 nM, blue light 6 h) was 83% and the “effect of blue light exposure with the drug on cell growth inhibition” value ([1]; for example 6 hours of blue light with 10 nm KX01) was “Synergistic effects”. The inhibition at 0.02 µM ([2]; A-431, 0 h, KX01 20 nM, blue light 0 h) was 99%, the inhibition at 0.04 µM ([2]; A-431, 0 h, KX01 40 nM, blue light 0 h) was 99% and the inhibition at 0.08 µM ([2]; A-431, 0 h, KX01 80 nM, blue light 0 h) was 99%. The inhibition at 0.01 µM ([2]; A-431, 2 h, KX01 10 nM, blue light 2 h) was 40%, the inhibition at 0.02 µM ([2]; A-431, 2 h, KX01 20 nM, blue light 2 h) was 97% and the inhibition at 0.04 µM ([2]; A-431, 2 h, KX01 40 nM, blue light 2 h) was 97%. For the same compound, the inhibition at 0.08 µM ([2]; A-431, 2 h, KX01 80 nM, blue light 2 h) was 95%, the inhibition at 0.01 µM ([2]; A-431, 4 h, KX01 10 nM, blue light 4 h) was 66% and the inhibition at 0.02 µM ([2]; A-431, 4 h, KX01 20 nM, blue light 4 h) was 76%. The inhibition at 0.04 µM ([2]; A-431, 4 h, KX01 40 nM, blue light 4 h) was 73%, the inhibition at 0.08 µM ([2]; A-431, 4 h, KX01 80 nM, blue light 4 h) was 75% and the inhibition at 0.01 µM ([2]; A-431, 6 h, KX01 10 nM, blue light 6 h) was 79%. For the same compound, the inhibition at 0.02 µM ([2]; A-431, 6 h, KX01 20 nM, blue light 6 h) was 81%, the inhibition at 0.04 µM ([2]; A-431, 6 h, KX01 40 nM, blue light 6 h) was 81% and the inhibition at 0.08 µM ([2]; A-431, 6 h, KX01 80 nM, blue light 6 h) was 82%. For the same compound, the “growth inhibition relative to untreated control” value ([2]; KX01 10 nM, blue light 0 h) was 0% and 11%, the “growth inhibition relative to untreated control” value ([2]; KX01 10 nM, blue light 2 h) was 44% and the “growth inhibition relative to untreated control” value ([2]; KX01 10 nM, blue light 6 h) was 77%. The “growth inhibition relative to untreated control” value ([2]; KX01 20 nM, blue light 0 h) was 80%, the “growth inhibition relative to untreated control” value ([2]; KX01 20 nM, blue light 2 h) was 83% and the “growth inhibition relative to untreated control” value ([2]; KX01 20 nM, blue light 4 h) was 69% and 74%. For the same compound, the “growth inhibition relative to untreated control” value ([2]; KX01 20 nM, blue light 6 h) was 83%, the “growth inhibition relative to untreated control” value ([2]; KX01 40 nM, blue light 0 h) was 100% and the “growth inhibition relative to untreated control” value ([2]; KX01 40 nM, blue light 4 h) was 80%. For the same compound, the “growth inhibition relative to untreated control” value ([2]; KX01 40 nM, blue light 6 h) was 86%, the “growth inhibition relative to untreated control” value ([2]; KX01 80 nM, blue light 2 h) was 98% and the “growth inhibition relative to untreated control” value ([2]; KX01 80 nM, blue light 4 h) was 84%. The “growth inhibition relative to untreated control” value ([2]; KX01 80 nM, blue light 6 h) was 88% and the “effect of blue light exposure with the drug on cell growth inhibition” value ([2]; for example at 10 nM KX01) was “Synergistic effects”.
